# Experiments:
# Experiment in all cases: In vitro fungal growth on inoculated agar plates, benzoxaborole and CO2 chamber treatment
# Type in all cases: cell-based
# [1] = system: Botrytis cinerea (BOTRCI)
# Excerpt: (§1) The following experiments were used to determine synergy between benzoxaborole Compounds A, B, and/or C and preservative gases, such as carbon dioxide (CO2) and sulfur dioxide (SO2). Specific rates or any other unique conditions are noted within the corresponding results tables. Each experiment comprised an air-tight 36 liter (L) chamber (Fisher Scientific, P/N: 08-642-23C), fitted with a bulkhead septum port (Swagelok, P/N: SS-400-61, Solon, OH) used for treatment delivery, as well as for monitoring (using needle extraction) carbon dioxide (CO2), sulfur dioxide (SO2), oxygen (O2) or other headspace samples. A variable speed fan (Thermaltake, Mobile Fan II, P/N: A1888, Taipei City, Taiwan) set to low was also used to circulate the headspace atmosphere.
# (§2) In vitro and in vivo experiments were performed concurrently in triple replicates (i.e., triplicate) unless otherwise noted. For in vitro experiments, a single 6-well microtiter plate or three, 10-cm petri plates each containing half strength Potato Dextrose Agar were prepared. Each well or plate was inoculated with 1 microliter (μL) of 1×10^5 spores/ml of the appropriate pathogenic spore suspension (e.g., Botrytis cinerea, BOTRCI; Penicillium expansum, PENIEX; Mucor piriformis, MUCOPI; Fusarium sambucinum FUSASA; or Aspergillus brasiliensis, ASPEBR). The inoculated microtiter or petri plates were then sealed with a breathable film (AeraSeal; P/N: B-100, Excel Scientific, Victorville, CA).
# (§3) For treatment, the inoculated agar plates and clamshells containing fruits (e.g., strawberries and grapes) were placed inside a 36 L experimental chamber unit, which was then sealed prior to commencement of compound treatments. The chamber remained sealed throughout the duration of the experiment except for addition of treatment to the chamber, and post-treatment ventilation.
# (§4) Benzoxaborole Compound A or Compound B was dissolved in acetone and dispensed onto a 60 mm Whatman #1 filter paper disk using a pipette. The acetone was permitted to evaporate for five minutes before the disk was placed on a watch glass in each chamber.
# (§5) A 12% CO2 headspace treatment was then established in the chamber by permitting 10 grams (g) of crushed dry ice placed in a weigh boat in the chamber to evaporate in the sealed chamber. However, the bulkhead port of the chamber was loosened to permit the release of internal pressure. Optionally, a fan was used during the initial hours of treatment (i.e., up to about 6 hours of treatment) to ensure uniform treatment exposure of fruits and plates.
# (§6) Untreated controls and CO2 treated chambers contained an acetone-treated disk with similar evaporation for five minutes. CO2 and O2 levels in the chamber were monitored using a handheld gas detector (Dansensor Checkpoint II; P/N 600111, Ringsted, Denmark). Temperature and relative humidity were also monitored within the chamber using data loggers (Onset HOBO; P/N U12-013, Bourne, MA).
# (§7) The chamber for all in vitro and in vivo experiments was held at room temperature (i.e., from about 21° C. to about 23° C.) typically for about 3.5 days (i.e., about 84 hours) of treatment exposure. Chambers were then vented. After an additional 2-3 days with the chamber at room temperature, post-treatment radial growth (in mm) of each in vitro pathogen (see Examples 1-7, Tables 1-7) was measured on the inoculated plates using electronic calipers (Mitutoyo, P/N: CD-6-CX, Aurora, IL). In addition, the point of inoculation on fruits was assessed for indication of in vivo disease incidence (e.g., yes or no) and severity of disease incidence (see Examples 8-16, Tables 8-16). Disease severity was rated on a scale ranging from 0 to 4, where “0” indicated no disease severity, “1” indicated minimal disease severity, “2” indicated medium disease severity, “3” indicated high disease severity, and “4” indicated exceptionally high disease severity. […]
# [2] = system: Fusarium sambucinum (FUSASA)
# Excerpt: as §1, §2, §3, §4, §5, §6, §7
# [3] = system: Aspergillus brasiliensis (ASPEBR)
# Excerpt: as §1, §2, §3, §4, §5, §6, §7
# [4] = Table 5, compound 0.14 mg/L + 12% CO2, Colby equation E=x+y−x*y/100
# [5] = Table 5, compound 0.14 mg/L + 12% CO2, evaluated 2 days after treatment, 6-well plate, fan first 6 hours, >90% R.H.
# [6] = Table 5, compound alone 0.14 mg/L, evaluated 2 days after treatment, 6-well plate, fan first 6 hours, >90% R.H.
compound,measurement,setting,value
OB1OCc2cc(F)ccc21 [Compound A],Colby Calculation,"[1]; Table 1, compound 0.14 mg/L + 12% CO2, Colby equation E=x+y−x*y/100",165.4
same,"Growth (diameter, mm) Cmpd + 12% CO2","[1]; Table 1, compound 0.14 mg/L + 12% CO2, evaluated 2 days after treatment completion, 6-well microtiter plate, 4 replicates, fan first 6 hours",0.0 mm
same,"Growth (diameter, mm) Cmpd","[1]; Table 1, compound alone 0.14 mg/L, evaluated 2 days after treatment completion, 6-well microtiter plate, 4 replicates, fan first 6 hours",16.3 mm
same,Colby Calculation,"[1]; Table 3, compound 0.14 mg/L + 12% CO2, Colby equation E=x+y−x*y/100",101.2
same,"Growth (diameter, mm) Cmpd + 12% CO2","[1]; Table 3, compound 0.14 mg/L + 12% CO2, evaluated 2 days after treatment, 6-well microtiter plate, fan first 6 hours, >90% R.H.",4.5 mm
same,"Growth (diameter, mm) Cmpd","[1]; Table 3, compound alone 0.14 mg/L, evaluated 2 days after treatment, 6-well microtiter plate, fan first 6 hours, >90% R.H.",5.5 mm
same,Colby Calculation,"[1]; Table 4, compound 0.14 mg/L + 12% CO2, Colby equation E=x+y−x*y/100",104.3
same,"Growth (diameter, mm) Cmpd + 12% CO2","[1]; Table 4, compound 0.14 mg/L + 12% CO2, evaluated 2 days after treatment completion, 6-well microtiter plate, fan first 6 hours",0.0 mm
same,"Growth (diameter, mm) Cmpd","[1]; Table 4, compound alone 0.14 mg/L, evaluated 2 days after treatment completion, 6-well microtiter plate, fan first 6 hours",1.5 mm
same,Colby Calculation,[1]; [4],102.9
same,"Growth (diameter, mm) Cmpd + 12% CO2",[1]; [5],3.0 mm
same,"Growth (diameter, mm) Cmpd",[1]; [6],3.6 mm
same,Colby Calculation,"[1]; Table 6, compound 0.14 mg/L + 12% CO2, Colby equation E=x+y−x*y/100",108.2
same,"Growth (diameter, mm) Cmpd + 12% CO2","[1]; Table 6, compound 0.14 mg/L + 12% CO2, evaluated 3 days after treatment, 10 cm petri plates, fan continuous",6.4 mm
same,"Growth (diameter, mm) Cmpd","[1]; Table 6, compound alone 0.14 mg/L, evaluated 3 days after treatment, 10 cm petri plates, fan continuous",13.2 mm
same,Colby Calculation,[2]; [4],104.0
same,"Growth (diameter, mm) Cmpd + 12% CO2",[2]; [5],3.8 mm
same,"Growth (diameter, mm) Cmpd",[2]; [6],5.0 mm
same,Colby Calculation,[3]; [4],108.3
same,"Growth (diameter, mm) Cmpd + 12% CO2",[3]; [5],0.0 mm
same,"Growth (diameter, mm) Cmpd",[3]; [6],2.6 mm

# — patent US12213485B2, “Synergistic methods of using benzoxaborole compounds and preservative gases as an antimicrobial for crops” (AGROFRESH INC., priority 2016, dated 2025)
